Experiments:
Assay in all cases: relative viability (nuclei count vs DMSO), 5 days (fraction); higher = more cells survive
[1] = compound: C1=CC2=C(C=CC(=C2)C=C3C(=O)NC(=NCC4=CC=CS4)S3)N=C1 [RO-3306] + CC(=O)c1c(C)c2cnc(Nc3ccc(N4CCNCC4)cn3)nc2n(C2CCCC2)c1=O [Palbociclib] (partner 0.5 µM)
In short: (§1)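 Relative viability was taken as the ratio of nuclei in treated wells to nuclei in vehicle wells. Lung cancer cell lines in 1536-well plates received compounds by pin tool one day after seeding, either one drug alone or a fixed anchor-drug dose plus five library-drug doses (not always all listed) in √10 steps. Nuclei were counted on 4× images after 5 days of treatment, and values are medians of duplicate plates.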

[2] = compound: C1=CC2=C(C=CC(=C2)C=C3C(=O)NC(=NCC4=CC=CS4)S3)N=C1 [RO-3306] + Cc1cc(Nc2cc(N3CCN(C)CC3)nc(Sc3ccc(NC(=O)C4CC4)cc3)n2)n[nH]1 [Tozasertib] (partner 0.1 µM)
In short: as §1

[3] = compound: O=S(=O)(c1ccccc1)N(CC(F)(F)F)c1ccc(C(O)(C(F)(F)F)C(F)(F)F)cc1 + C[C@@H](Oc1cc(-c2cnn(C3CCNCC3)c2)cnc1N)c1c(Cl)ccc(F)c1Cl [Crizotinib] (partner 1 µM)
In short: as §1

[4] = compound: O=S(=O)(c1ccccc1)N(CC(F)(F)F)c1ccc(C(O)(C(F)(F)F)C(F)(F)F)cc1 + N=C(N)NC(=N)NCCc1ccccc1 [Phenformin] (partner 250 µM)
In short: as §1

[5] = compound: O=S(=O)(c1ccccc1)N(CC(F)(F)F)c1ccc(C(O)(C(F)(F)F)C(F)(F)F)cc1 + O=C(c1cc(Cc2n[nH]c(=O)c3ccccc23)ccc1F)N1CCN(C(=O)C2CC2)CC1 [Olaparib] (partner 8 µM)
In short: as §1

Cell Line | relative viability ([1]; first compound 0.01 µM) | relative viability ([1]; first compound 0.03162 µM) | relative viability ([1]; first compound 0.1 µM) | relative viability ([1]; first compound 0.3162 µM) | relative viability ([1]; first compound 1 µM) | relative viability ([2]; first compound 0.01 µM) | relative viability ([2]; first compound 0.03162 µM) | relative viability ([2]; first compound 0.1 µM) | relative viability ([2]; first compound 0.3162 µM) | relative viability ([2]; first compound 1 µM) | relative viability ([3]; first compound 0.8 µM) | relative viability ([3]; first compound 2.53 µM) | relative viability ([3]; first compound 8 µM) | relative viability ([4]; first compound 0.8 µM) | relative viability ([4]; first compound 2.53 µM) | relative viability ([4]; first compound 8 µM) | relative viability ([5]; first compound 0.8 µM) | relative viability ([5]; first compound 2.53 µM) | relative viability ([5]; first compound 8 µM)
LOU-NH91 | 0.538 | 0.547 | 0.542 | 0.526 | 0.53 | 0.667 | 0.63 | 0.669 | 0.638 | 0.561 | 0.748 | 0.775 | 0.753 | 0.607 | 0.562 | 0.661 | 0.966 | 0.935 | 0.913
LC-2-ad | 0.504 | 0.399 | 0.512 | 0.515 | 0.483 | 0.433 | 0.404 | 0.44 | 0.485 | 0.404 | 0.478 | 0.498 | 0.443 | 0.626 | 0.584 | 0.633 | 0.689 | 0.675 | 0.674
PC-3 [JPC-3] | 0.54 | 0.563 | 0.567 | 0.495 | 0.569 | 0.872 | 0.825 | 0.892 | 0.852 | 0.416 | 1.07 | 0.907 | 0.927 | 0.441 | 0.551 | 0.501 | – | 1.09 | 1.1
NCI-H1734 | 0.39 | 0.321 | 0.333 | 0.429 | 0.34 | 0.233 | 0.256 | 0.247 | 0.304 | 0.274 | 0.789 | 0.728 | 0.649 | 0.562 | 0.45 | 0.354 | 0.703 | 0.559 | 0.469
NCI-H520 | 0.254 | 0.224 | 0.235 | 0.261 | 0.267 | 0.44 | 0.481 | 0.39 | 0.426 | 0.394 | 0.939 | 0.767 | 0.855 | 0.825 | 0.568 | 0.708 | 0.333 | 0.346 | 0.32
HOP-62 | 0.519 | 0.481 | 0.416 | 0.43 | 0.446 | 0.346 | 0.304 | 0.353 | 0.39 | 0.377 | 1.04 | 0.871 | 0.913 | 0.646 | 0.533 | 0.427 | 0.226 | 0.49 | 0.392
NCI-H650 | 0.32 | 0.325 | 0.332 | 0.328 | 0.293 | 0.682 | 0.695 | 0.718 | 0.739 | 0.603 | 0.737 | 0.559 | 0.782 | 0.396 | 0.465 | 0.509 | 0.405 | 0.387 | 0.359
NCI-H1993 | 0.636 | 0.633 | 0.611 | 0.552 | 0.583 | 0.649 | 0.582 | 0.558 | 0.573 | 0.605 | 0.855 | 0.686 | 0.799 | 0.522 | 0.529 | 0.469 | 1.1 | 0.843 | 0.954
NCI-H2023 | 0.389 | 0.376 | 0.276 | 0.443 | 0.251 | 0.401 | 0.327 | 0.254 | 0.241 | 0.308 | 0.754 | 0.524 | 0.61 | 0.472 | 0.369 | 0.311 | 0.601 | 0.48 | 0.441
NCI-H647 | 0.486 | 0.325 | 0.355 | 0.474 | 0.446 | 0.333 | 0.0513 | 0.304 | 0.269 | 0.158 | 1.52 | 1.23 | 0.906 | 0.502 | 0.552 | 0.455 | 0.667 | 0.418 | 0.6
EPLC-272H | 0.254 | – | 0.342 | 0.304 | 0.302 | 0.196 | 0.288 | 0.208 | 0.237 | 0.249 | 1.24 | 0.742 | 0.841 | 0.273 | 0.304 | 0.269 | 0.888 | 0.859 | 0.645
NCI-H3122 | 0.188 | 0.18 | 0.19 | 0.199 | 0.209 | 0.449 | 0.413 | 0.42 | 0.475 | 0.284 | 0.271 | 0.253 | 0.259 | 0.345 | 0.334 | 0.338 | 0.678 | 0.599 | 0.654
SK-MES-1 | 0.355 | 0.305 | 0.352 | 0.289 | 0.272 | 1.02 | 1 | 1.01 | 0.807 | 0.585 | 1.02 | 1 | 0.903 | 0.779 | 0.745 | 0.65 | 0.743 | 0.728 | 0.579
NCI-H661 | 0.421 | 0.45 | 0.394 | 0.386 | 0.383 | 0.333 | 0.382 | 0.351 | 0.339 | 0.337 | 0.99 | 0.965 | 0.933 | 0.272 | 0.333 | 0.3 | 0.774 | 0.779 | 0.768
NCI-H322M | 0.472 | 0.469 | 0.502 | 0.433 | 0.478 | 0.549 | 0.467 | 0.443 | 0.476 | 0.432 | 0.981 | 0.835 | 0.743 | 0.882 | 0.812 | 0.819 | 0.81 | 0.734 | 0.857
NCI-H727 | 0.623 | 0.613 | 0.552 | 0.557 | 0.604 | 0.706 | 0.644 | 0.498 | 0.613 | 0.573 | 0.832 | 0.844 | 0.646 | 0.568 | 0.378 | 0.469 | 0.657 | 0.706 | 0.704
LU99A | 0.438 | 0.418 | 0.425 | 0.374 | 0.386 | 0.285 | 0.257 | 0.258 | 0.254 | 0.231 | 0.634 | 0.465 | 0.516 | 0.878 | 0.762 | 0.875 | 0.253 | 0.248 | 0.392
SK-LU-1 | 0.365 | 0.366 | 0.382 | 0.336 | 0.355 | 0.266 | 0.312 | 0.313 | 0.321 | 0.282 | 1.06 | 0.748 | 0.736 | 0.546 | 0.489 | 0.526 | 0.446 | 0.472 | 0.433
201T | 0.31 | 0.342 | 0.325 | 0.36 | 0.367 | 1 | 0.933 | 0.925 | 0.975 | 0.964 | 1 | 0.902 | 1 | 0.451 | 0.41 | 0.503 | 0.815 | 0.793 | 0.819
COR-L23 | 0.286 | 0.252 | 0.293 | 0.297 | 0.257 | 0.238 | 0.175 | 0.178 | 0.169 | 0.166 | 0.644 | 0.472 | 0.597 | 0.452 | 0.451 | 0.427 | 0.357 | 0.35 | 0.34
LCLC-97TM1 | 0.203 | 0.218 | 0.237 | 0.214 | 0.194 | 0.224 | 0.22 | 0.175 | 0.205 | 0.172 | 0.314 | 0.371 | 0.297 | 0.448 | 0.402 | 0.419 | – | 0.355 | 0.257
PC-14 | 0.654 | 0.4 | 0.494 | 0.538 | 0.577 | 0.78 | 0.572 | 0.527 | 0.562 | 0.488 | 1.1 | 0.893 | 0.932 | 0.309 | 0.357 | 0.447 | 0.201 | 0.198 | 0.204
NCI-H1651 | 0.542 | 0.456 | 0.505 | 0.538 | 0.496 | 0.713 | 0.589 | 0.755 | 0.57 | 0.446 | 1.02 | 0.882 | 0.849 | 0.358 | 0.292 | 0.268 | 0.178 | 0.206 | 0.176
HCC-15 | 0.787 | 0.606 | 0.677 | 0.669 | 0.742 | 0.438 | 0.342 | 0.345 | 0.383 | 0.301 | 0.867 | 0.766 | 0.676 | 0.469 | 0.405 | 0.422 | 0.737 | 0.581 | 0.644
NCI-H1755 | 0.421 | 0.474 | 0.48 | 0.417 | 0.45 | 0.577 | 0.688 | 0.514 | 0.547 | 0.554 | 0.96 | 0.774 | 0.782 | 0.638 | 0.614 | 0.569 | 0.918 | 0.865 | 0.849
